Measurements taken from US20240270762A1, “PENICILLIN-BINDING PROTEIN INHIBITORS” (priority 2021, published 2024).
In brackets after ≈: the same amount, converted by molar mass.

Experiments:
[1] = target: T1, PBP3 from Acinetobacter baumannii (ATCC 19606) (Acinetobacter baumannii, UniProt A0ABX6CK25); assay: Bocillin-FL fluorescence polarization competition binding, A. baumannii PBP3; details: fluorescence polarization competition binding assay using Bocillin-FL; read-out: A. baumannii PBP3 Potency
T1 sequence (A0ABX6CK25 64-610): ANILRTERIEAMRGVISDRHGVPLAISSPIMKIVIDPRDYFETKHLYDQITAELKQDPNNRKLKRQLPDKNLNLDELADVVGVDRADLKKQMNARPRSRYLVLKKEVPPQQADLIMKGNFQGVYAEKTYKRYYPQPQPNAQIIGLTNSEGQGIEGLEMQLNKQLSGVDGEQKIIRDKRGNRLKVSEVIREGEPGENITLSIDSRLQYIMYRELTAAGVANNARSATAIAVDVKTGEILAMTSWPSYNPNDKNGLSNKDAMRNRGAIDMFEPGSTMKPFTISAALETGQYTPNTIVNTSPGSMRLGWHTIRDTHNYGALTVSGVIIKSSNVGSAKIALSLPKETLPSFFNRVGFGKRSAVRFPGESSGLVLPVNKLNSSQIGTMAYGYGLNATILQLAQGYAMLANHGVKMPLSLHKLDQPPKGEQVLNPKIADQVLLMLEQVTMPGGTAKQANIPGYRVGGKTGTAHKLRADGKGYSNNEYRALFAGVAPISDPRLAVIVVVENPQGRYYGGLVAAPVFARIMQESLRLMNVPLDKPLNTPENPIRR
In short: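 Purified PBP was preincubated with inhibitor (E. coli PBP3 1.5 μM, 30 min; P. aeruginosa PBP3 0.75 μM, A. baumannii PBP3 0.2 μM and PBP1a 1 μM, 15 min), then Bocillin-FL (0.1 μM; 0.05 μM for PBP1a) added and FP read up to 60 min. EC50 = 50% loss of bound probe.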

P. aeruginosa ATCC 27853 = assay: microbe, parasite or virus in culture; type: cell-based; details: Pseudomonas aeruginosa, ATCC27853, read-out: Minimum inhibitory concentration, P. aeruginosa ATCC 27853
P. aeruginosa CDC-0095 = assay: microbe, parasite or virus in culture; type: cell-based; details: Pseudomonas aeruginosa, CDC0095, read-out: Minimum inhibitory concentration, P. aeruginosa CDC-0095
A. baumannii 1258916 = assay: microbe, parasite or virus in culture; type: cell-based, Acinetobacter baumannii; details: Acinetobacter baumannii, 1258916, read-out: MIC, A. baumannii 1258916
A. baumannii CDC-0033 = assay: microbe, parasite or virus in culture; type: cell-based; details: Acinetobacter baumannii, CDC0033, read-out: MIC, A. baumannii CDC-0033
A. baumannii CDC-0036 = assay: microbe, parasite or virus in culture; type: cell-based; details: Acinetobacter baumannii, CDC0036, read-out: MIC, A. baumannii CDC-0036
[2] = test system: B. thailandensis ATCC 700388; assay: microbe, parasite or virus in culture; type: cell-based; details: Burkholderia thailandensis, ATCC700388, read-out: Minimum inhibitory concentration (MIC), B. thailandensis ATCC 700388
P. aeruginosa CDC-0110 = assay: microbe, parasite or virus in culture; type: cell-based; details: Pseudomonas aeruginosa, CDC0110, read-out: Minimum inhibitory concentration, P. aeruginosa CDC-0110
N. gonorrhoeae MS11 = assay: Liquid broth MIC in Fastidious broth; details: Neisseria gonorrhoeae, MS11, read-out: Minimum Inhibitory Concentration (MIC), N. gonorrhoeae MS11
N. gonorrhoeae WHO G = assay: Liquid broth MIC in Fastidious broth; details: Neisseria gonorrhoeae, read-out: Minimum Inhibitory Concentration (MIC), N. gonorrhoeae WHO G
N. gonorrhoeae WHO Q = assay: Liquid broth MIC in Fastidious broth; details: Neisseria gonorrhoeae, read-out: Minimum Inhibitory Concentration (MIC), N. gonorrhoeae WHO Q

SMILES | IC50 [1] [µM] | MIC (P. aeruginosa ATCC 27853) [mg/L] | MIC (P. aeruginosa CDC-0095) [mg/L] | MIC (A. baumannii 1258916) [mg/L] | MIC (A. baumannii CDC-0033) [mg/L] | MIC (A. baumannii CDC-0036) [mg/L] | MIC [2] [mg/L] | MIC (P. aeruginosa CDC-0110) [mg/L] | MIC (N. gonorrhoeae MS11) [mg/L] | MIC (N. gonorrhoeae WHO G) [mg/L] | MIC (N. gonorrhoeae WHO Q) [mg/L]
O=C(NCCN1CCN(C(=O)N[C@@H](C(=O)N[C@H]2Cc3ccc(F)c(C(=O)O)c3OB2O)c2cc(F)c(O)c(O)c2Cl)C(=O)C1=O)Nc1cccnc1 [Example 222, (R)-3-((R)-2-(2-chloro-5-fluoro-3,4-dihydroxyphenyl)-2-(2,3-dioxo-4-(2-(3-(pyridin-3-yl)ureido)ethyl)piperazine-1-carboxamido)acetamido)-7-fluoro-2-hydroxy-3,4-dihydro-2H-benzo[e][1,2]oxaborinine-8-carboxylic acid] | < 10 | < 1 | 8 to 16 (≈ 10.7 to 21.5 µM) | 2 to 4 (≈ 2.68 to 5.36 µM) | 2 to 4 (≈ 2.68 to 5.36 µM) | 2 to 4 (≈ 2.68 to 5.36 µM) | 2 to 4 (≈ 2.68 to 5.36 µM) | < 1 | 16 to 32 (≈ 21.5 to 42.9 µM) | 4 to 8 (≈ 5.36 to 10.7 µM) | > 64
CN(CCN1CCN(C(=O)NC(C(=O)N[C@H]2Cc3ccc(F)c(C(=O)O)c3OB2O)c2cc(F)c(O)c(O)c2Cl)C(=O)C1=O)S(=O)(=O)c1ccc(C(N)=O)cc1 (stereo partly drawn) [Example 223, (3R)-3-(2-(4-(2-((4-carbamoyl-N-methylphenyl)sulfonamido)ethyl)-2,3-dioxopiperazine-1-carboxamido)-2-(2-chloro-5-fluoro-3,4-dihydroxyphenyl)acetamido)-7-fluoro-2-hydroxy-3,4-dihydro-2H-benzo[e][1,2]oxaborinine-8-carboxylic acid] | < 10 | 2 to 4 (≈ 2.43 to 4.86 µM) | 2 to 4 (≈ 2.43 to 4.86 µM) | 2 to 4 (≈ 2.43 to 4.86 µM) | 8 to 16 (≈ 9.72 to 19.4 µM) | 8 to 16 (≈ 9.72 to 19.4 µM) | 2 to 4 (≈ 2.43 to 4.86 µM) | < 1 | 16 to 32 (≈ 19.4 to 38.9 µM) | 16 to 32 (≈ 19.4 to 38.9 µM) | > 64
CN(CCN1CCN(C(=O)NC(C(=O)N[C@H]2Cc3ccc(F)c(C(=O)O)c3OB2O)c2cc(F)c(O)c(O)c2Cl)C(=O)C1=O)S(=O)(=O)c1cccc(C(N)=O)c1 (stereo partly drawn) [Example 224, (3R)-3-(2-(4-(2-((3-carbamoyl-N-methylphenyl)sulfonamido)ethyl)-2,3-dioxopiperazine-1-carboxamido)-2-(2-chloro-5-fluoro-3,4-dihydroxyphenyl)acetamido)-7-fluoro-2-hydroxy-3,4-dihydro-2H-benzo[e][1,2]oxaborinine-8-carboxylic acid] | < 10 | 2 to 4 (≈ 2.43 to 4.86 µM) | 2 to 4 (≈ 2.43 to 4.86 µM) | 2 to 4 (≈ 2.43 to 4.86 µM) | 8 to 16 (≈ 9.72 to 19.4 µM) | 8 to 16 (≈ 9.72 to 19.4 µM) | 2 to 4 (≈ 2.43 to 4.86 µM) | < 1 | > 64 | 16 to 32 (≈ 19.4 to 38.9 µM) | > 64
CN(CCN1CCN(C(=O)N[C@@H](C(=O)N[C@H]2Cc3ccc(F)c(C(=O)O)c3OB2O)c2cc(F)c(O)c(O)c2Cl)C(=O)C1=O)Cc1cccc(C(N)=O)c1 [Example 225, (R)-3-((R)-2-(4-(2-((3-carbamoylbenzyl)(methyl)amino)ethyl)-2,3-dioxopiperazine-1-carboxamido)-2-(2-chloro-5-fluoro-3,4-dihydroxyphenyl)acetamido)-7-fluoro-2-hydroxy-3,4-dihydro-2H-benzo[e][1,2]oxaborinine-8-carboxylic acid] | < 10 | 2 to 4 (≈ 2.59 to 5.18 µM) | 2 to 4 (≈ 2.59 to 5.18 µM) | < 1 | 2 to 4 (≈ 2.59 to 5.18 µM) | 2 to 4 (≈ 2.59 to 5.18 µM) | < 1 | < 1 | 16 to 32 (≈ 20.7 to 41.4 µM) | 16 to 32 (≈ 20.7 to 41.4 µM) | > 64
CN(CCN1CCN(C(=O)N[C@@H](C(=O)N[C@H]2Cc3ccc(F)c(C(=O)O)c3OB2O)c2cc(F)c(O)c(O)c2Cl)C(=O)C1=O)Cc1ccc(C(N)=O)cc1 [Example 226, (R)-3-((R)-2-(4-(2-((4-carbamoylbenzyl)(methyl)amino)ethyl)-2,3-dioxopiperazine-1-carboxamido)-2-(2-chloro-5-fluoro-3,4-dihydroxyphenyl)acetamido)-7-fluoro-2-hydroxy-3,4-dihydro-2H-benzo[e][1,2]oxaborinine-8-carboxylic acid] | < 10 | 2 to 4 (≈ 2.59 to 5.18 µM) | 2 to 4 (≈ 2.59 to 5.18 µM) | < 1 | 2 to 4 (≈ 2.59 to 5.18 µM) | 2 to 4 (≈ 2.59 to 5.18 µM) | < 1 | < 1 | 16 to 32 (≈ 20.7 to 41.4 µM) | 16 to 32 (≈ 20.7 to 41.4 µM) | > 64
O=C(NCCCN1CCN(C(=O)NC(C(=O)N[C@H]2Cc3ccc(F)c(C(=O)O)c3OB2O)c2cc(F)c(O)c(O)c2Cl)C(=O)C1=O)Nc1ccc(O)cc1 (stereo partly drawn) [Example 227, (3R)-3-(2-(2-chloro-5-fluoro-3,4-dihydroxyphenyl)-2-(4-(3-(3-(4-hydroxyphenyl)ureido)propyl)-2,3-dioxopiperazine-1-carboxamido)acetamido)-7-fluoro-2-hydroxy-3,4-dihydro-2H-benzo[e][1,2]oxaborinine-8-carboxylic acid] | < 10 | < 1 | < 1 | < 1 | 2 to 4 (≈ 2.58 to 5.16 µM) | 2 to 4 (≈ 2.58 to 5.16 µM) | < 1 | < 1 | 16 to 32 (≈ 20.6 to 41.3 µM) | 4 to 8 (≈ 5.16 to 10.3 µM) | > 64
O=C(NCCCN1CCN(C(=O)NC(C(=O)N[C@H]2Cc3ccc(F)c(C(=O)O)c3OB2O)c2cc(F)c(O)c(O)c2Cl)C(=O)C1=O)Nc1ccncc1 (stereo partly drawn) [Example 228, (3R)-3-(2-(2-chloro-5-fluoro-3,4-dihydroxyphenyl)-2-(2,3-dioxo-4-(3-(3-(pyridin-4-yl)ureido)propyl)piperazine-1-carboxamido)acetamido)-7-fluoro-2-hydroxy-3,4-dihydro-2H-benzo[e][1,2]oxaborinine-8-carboxylic acid] | < 10 | < 1 | 2 to 4 (≈ 2.63 to 5.26 µM) | < 1 | 2 to 4 (≈ 2.63 to 5.26 µM) | 2 to 4 (≈ 2.63 to 5.26 µM) | < 1 | < 1 | > 64 | 16 to 32 (≈ 21.1 to 42.1 µM) | > 64
O=C(O)c1c(F)ccc2c1OB(O)[C@@H](NC(=O)[C@H](NC(=O)N1CCN(CCNC(=O)[C@@H]3CCCN3)C(=O)C1=O)c1cc(F)c(O)c(O)c1Cl)C2 [Example 229, (R)-3-((R)-2-(2-chloro-5-fluoro-3,4-dihydroxyphenyl)-2-(2,3-dioxo-4-(2-((S)-pyrrolidine-2-carboxamido)ethyl)piperazine-1-carboxamido)acetamido)-7-fluoro-2-hydroxy-3,4-dihydro-2H-benzo[e][1,2]oxaborinine-8-carboxylic acid] | < 10 | < 1 | < 1 | 2 to 4 (≈ 2.77 to 5.53 µM) | 8 to 16 (≈ 11.1 to 22.1 µM) | 2 to 4 (≈ 2.77 to 5.53 µM) | < 1 | 2 to 4 (≈ 2.77 to 5.53 µM) | 16 to 32 (≈ 22.1 to 44.3 µM) | 4 to 8 (≈ 5.53 to 11.1 µM) | 16 to 32 (≈ 22.1 to 44.3 µM)
